Measured values: ChEMBL document CHEMBL4145553, “Design, synthesis, and biological evaluation of novel amide and hydrazide based thioether analogs targeting Histone deacteylase (HDAC) enzymes” (Eur J Med Chem, 2018)

How the values were obtained:
NCI-H226 = assay: Growth inhibition of human NCI-H226 cells at 10 uM incubated for 48 hrs by sulforhodamine B assay relative to control; format: functional; conditions: NCI-H226, 48 h, values are per cent of control
NCI-H23 = assay: Growth inhibition of human NCI-H23 cells at 10 uM incubated for 48 hrs by sulforhodamine B assay relative to control; format: functional; conditions: NCI-H23, 48 h, values are per cent of control
SN12C = assay: Growth inhibition of human SN12C cells at 10 uM incubated for 48 hrs by sulforhodamine B assay relative to control; format: functional; conditions: values are per cent of control
CAKI-1 = assay: Growth inhibition of human Caki1 cells at 10 uM incubated for 48 hrs by sulforhodamine B assay relative to control; format: functional; conditions: CAKI-1, 48 h, values are per cent of control
ACHN = assay: Growth inhibition of human ACHN cells at 10 uM incubated for 48 hrs by sulforhodamine B assay relative to control; format: functional; conditions: values are per cent of control
786-0 = assay: Growth inhibition of human 786-0 cells at 10 uM incubated for 48 hrs by sulforhodamine B assay relative to control; format: functional; conditions: 786-0, 48 h, values are per cent of control
SK-OV-3 = assay: Growth inhibition of human SKOV3 cells at 10 uM incubated for 48 hrs by sulforhodamine B assay relative to control; format: functional; conditions: SK-OV-3, 48 h, values are per cent of control
UO-31 = assay: Growth inhibition of human UO31 cells at 10 uM incubated for 48 hrs by sulforhodamine B assay relative to control; format: functional; conditions: UO-31, 48 h, values are per cent of control
MDA-MB-231 = assay: Growth inhibition of human MDA-MB-231 cells at 10 uM incubated for 48 hrs by sulforhodamine B assay relative to control; format: functional; conditions: MDA-MB-231, 48 h, values are per cent of control
Hs-578T = assay: Growth inhibition of human Hs 578T cells at 10 uM incubated for 48 hrs by sulforhodamine B assay relative to control; format: functional; conditions: values are per cent of control
BT-549 = assay: Growth inhibition of human BT549 cells at 10 uM incubated for 48 hrs by sulforhodamine B assay relative to control; format: functional; conditions: BT-549, 48 h, values are per cent of control
T47D = assay: Growth inhibition of human T47D cells at 10 uM incubated for 48 hrs by sulforhodamine B assay relative to control; format: functional; conditions: values are per cent of control
SR = assay: Growth of human SR cells at 10 uM incubated for 48 hrs by sulforhodamine B assay relative to control
K562 = assay: Growth of human K562 cells at 10 uM incubated for 48 hrs by sulforhodamine B assay relative to control; conditions: K562, 48 h
EKVX = assay: Growth of human EKVX cells at 10 uM incubated for 48 hrs by sulforhodamine B assay relative to control
SF-539 = assay: Growth of human SF539 cells at 10 uM incubated for 48 hrs by sulforhodamine B assay relative to control; conditions: SF-539, 48 h
SW-620 = assay: Growth of human SW620 cells at 10 uM incubated for 48 hrs by sulforhodamine B assay relative to control; conditions: SW-620, 48 h
HT-29 = assay: Growth of human HT-29 cells at 10 uM incubated for 48 hrs by sulforhodamine B assay relative to control; conditions: HT-29, 48 h
HOP-62 = assay: Growth of human HOP62 cells at 10 uM incubated for 48 hrs by sulforhodamine B assay relative to control; conditions: HOP-62, 48 h
OVCAR-4 = assay: Growth of human OVCAR4 cells at 10 uM incubated for 48 hrs by sulforhodamine B assay relative to control; conditions: OVCAR-4, 48 h
IGROV-1 = assay: Growth of human IGROV1 cells at 10 uM incubated for 48 hrs by sulforhodamine B assay relative to control; conditions: IGROV-1, 48 h
HCT-116 = assay: Growth of human HCT116 cells at 10 uM incubated for 48 hrs by sulforhodamine B assay relative to control; conditions: HCT-116, 48 h
LOX IMVI = assay: Growth of human LOXIMVI cells at 10 uM incubated for 48 hrs by sulforhodamine B assay relative to control
HCC 2998 = assay: Growth of human HCC2998 cells at 10 uM incubated for 48 hrs by sulforhodamine B assay relative to control; conditions: HCC 2998, 48 h
COLO 205 = assay: Growth of human COLO205 cells at 10 uM incubated for 48 hrs by sulforhodamine B assay relative to control; conditions: COLO 205, 48 h
SK-MEL-5 = assay: Growth of human SK-MEL-5 cells at 10 uM incubated for 48 hrs by sulforhodamine B assay relative to control; conditions: SK-MEL-5, 48 h
CCRF-CEM = assay: Growth of human CCRF-CEM cells at 10 uM incubated for 48 hrs by sulforhodamine B assay relative to control

Row | SMILES | growth, % of control at 10 µM (NCI-H226) | growth, % of control at 10 µM (NCI-H23) | growth, % of control at 10 µM (SN12C) | growth, % of control at 10 µM (CAKI-1) | growth, % of control at 10 µM (ACHN) | growth, % of control at 10 µM (786-0) | growth, % of control at 10 µM (SK-OV-3) | growth, % of control at 10 µM (UO-31) | growth, % of control at 10 µM (MDA-MB-231) | growth, % of control at 10 µM (Hs-578T) | growth, % of control at 10 µM (BT-549) | growth, % of control at 10 µM (T47D) | growth, % of control at 10 µM (SR) | growth, % of control at 10 µM (K562) | growth, % of control at 10 µM (EKVX) | growth, % of control at 10 µM (SF-539) | growth, % of control at 10 µM (SW-620) | growth, % of control at 10 µM (HT-29) | growth, % of control at 10 µM (HOP-62) | growth, % of control at 10 µM (OVCAR-4) | other results
1 | CC(C)(C)S/C(Nc1ccccc1)=C(\C#N)C(=O)N/N=C\c1ccco1 | 92% | 99% | 103% | 95.8% | 98% | 102% | 89.3% | 90.2% | 99.6% | 92.5% | 103% | 91.4% | 76.5% | 100% | 91.9% | 94.3% | 94.4% | 87.2% | 93.8% | 104% | growth, % of control at 10 µM (IGROV-1): 106%; growth, % of control at 10 µM (HCT-116): 82.9%; growth, % of control at 10 µM (LOX IMVI): 99.6%; growth, % of control at 10 µM (HCC 2998): 107%; growth, % of control at 10 µM (COLO 205): 102%; growth, % of control at 10 µM (SK-MEL-5): 96.9%; growth, % of control at 10 µM (CCRF-CEM): 92.2%
2 | CCS/C(Nc1ccccc1)=C(\C#N)C(=O)N/N=C\c1ccco1 | 95.2% | 96.5% | 97.7% | 95.9% | 105% | 100% | 99.3% | 86.8% | 96.2% | 101% | 109% | 78% | 85.1% | 97.8% | 101% | 98.7% | 103% | 94.7% | 97.4% | 106% | growth, % of control at 10 µM (IGROV-1): 105%; growth, % of control at 10 µM (HCT-116): 95.5%; growth, % of control at 10 µM (LOX IMVI): 109%; growth, % of control at 10 µM (HCC 2998): 107%; growth, % of control at 10 µM (COLO 205): 103%; growth, % of control at 10 µM (SK-MEL-5): 101%; growth, % of control at 10 µM (CCRF-CEM): 91.2%
3 | CCS/C(Nc1ccccc1)=C(\C#N)C(=O)Nc1ccc(C)cc1 | 95% | 94% | 94.3% | 86.8% | 96.8% | 87.1% | 101% | 75.3% | 98.9% | 98.9% | 103% | 72.1% | 64.2% | 80.1% | 97.4% | 98.2% | 101% | 89% | 103% | 101% | growth, % of control at 10 µM (IGROV-1): 99%; growth, % of control at 10 µM (HCT-116): 90%; growth, % of control at 10 µM (LOX IMVI): 98.8%; growth, % of control at 10 µM (HCC 2998): 94.8%; growth, % of control at 10 µM (COLO 205): 117%; growth, % of control at 10 µM (SK-MEL-5): 93.6%; growth, % of control at 10 µM (CCRF-CEM): 85.8%
4 | CCS/C(Nc1ccccc1)=C(\C#N)C(=O)Nc1ccccc1 | 92.9% | 94.3% | 94% | 87.5% | 102% | 88.5% | 88.2% | 76% | 94.2% | 96.9% | 103% | 70.1% | 70.3% | 89.9% | 100% | 104% | 103% | 88.2% | 93.1% | 102% | growth, % of control at 10 µM (IGROV-1): 105%; growth, % of control at 10 µM (HCT-116): 92.7%; growth, % of control at 10 µM (LOX IMVI): 97.9%; growth, % of control at 10 µM (HCC 2998): 96.1%; growth, % of control at 10 µM (COLO 205): 113%; growth, % of control at 10 µM (SK-MEL-5): 93.5%; growth, % of control at 10 µM (CCRF-CEM): 82.4%
5 | CC(C)(C)S/C(Nc1ccccc1)=C(\C#N)C(=O)N/N=C\c1ccc(Cl)cc1Cl | 92.6% | 92.5% | 101% | 98.4% | 105% | 97.8% | 101% | 82.7% | 96.8% | 90.1% | 97% | 78.4% | 70% | 91.8% | 101% | 98% | 105% | 92.6% | 98.1% | 112% | growth, % of control at 10 µM (IGROV-1): 98.7%; growth, % of control at 10 µM (HCT-116): 88%; growth, % of control at 10 µM (LOX IMVI): 101%; growth, % of control at 10 µM (HCC 2998): 98.6%; growth, % of control at 10 µM (COLO 205): 112%; growth, % of control at 10 µM (SK-MEL-5): 98.7%; growth, % of control at 10 µM (CCRF-CEM): 88.3%
6 | CC(C)(C)S/C(Nc1ccccc1)=C(\C#N)C(=O)Nc1ccccc1 | 88.9% | 99.8% | 98.4% | 95% | 103% | 94.3% | 105% | 86.1% | 98.5% | 99.6% | 99.4% | 85.2% | 82.3% | 95.9% | 101% | 100% | 103% | 94.6% | 90.6% | 100% | growth, % of control at 10 µM (IGROV-1): 108%; growth, % of control at 10 µM (HCT-116): 95.2%; growth, % of control at 10 µM (LOX IMVI): 98.8%; growth, % of control at 10 µM (HCC 2998): 106%; growth, % of control at 10 µM (COLO 205): 102%; growth, % of control at 10 µM (SK-MEL-5): 102%; growth, % of control at 10 µM (CCRF-CEM): 86.4%
